Drawing on ChEMBL document CHEMBL3751785, “Development and structural analysis of adenosine site binding tankyrase inhibitors” (Bioorg Med Chem Lett, 2016), this text covers IC50 for one compound.

The target of assay [1] is T1, Protein mono-ADP-ribosyltransferase PARP12 (Homo sapiens, UniProt Q9H0J9).
T1 sequence (Q9H0J9 whole entry): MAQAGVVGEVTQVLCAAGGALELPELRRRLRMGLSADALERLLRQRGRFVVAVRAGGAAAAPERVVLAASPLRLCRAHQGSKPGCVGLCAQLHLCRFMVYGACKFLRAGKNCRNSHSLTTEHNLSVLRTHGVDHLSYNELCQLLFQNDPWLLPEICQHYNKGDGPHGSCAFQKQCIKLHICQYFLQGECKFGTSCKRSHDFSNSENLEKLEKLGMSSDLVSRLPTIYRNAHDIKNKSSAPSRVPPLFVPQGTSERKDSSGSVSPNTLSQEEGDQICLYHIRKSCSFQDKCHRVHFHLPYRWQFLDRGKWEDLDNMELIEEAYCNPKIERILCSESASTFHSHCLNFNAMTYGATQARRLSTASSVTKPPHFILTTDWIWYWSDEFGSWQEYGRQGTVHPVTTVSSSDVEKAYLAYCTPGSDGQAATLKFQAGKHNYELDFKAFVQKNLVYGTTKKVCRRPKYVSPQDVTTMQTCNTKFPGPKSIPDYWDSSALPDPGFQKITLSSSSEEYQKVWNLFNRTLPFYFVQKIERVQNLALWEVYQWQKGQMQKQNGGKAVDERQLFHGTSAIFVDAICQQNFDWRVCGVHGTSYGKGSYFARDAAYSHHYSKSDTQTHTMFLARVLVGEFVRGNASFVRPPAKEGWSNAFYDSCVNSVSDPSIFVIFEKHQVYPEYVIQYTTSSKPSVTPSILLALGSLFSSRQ
Nature of the assay: Inhibition of human ARTD12 by fluorescence analysis.

Assay [2] deals with Poly [ADP-ribose] polymerase 2 (Homo sapiens, UniProt Q9UGN5). Nature of the assay: Inhibition of human ARTD2 by fluorescence analysis.
Poly [ADP-ribose] polymerase 2, sequence (Q9UGN5 whole entry): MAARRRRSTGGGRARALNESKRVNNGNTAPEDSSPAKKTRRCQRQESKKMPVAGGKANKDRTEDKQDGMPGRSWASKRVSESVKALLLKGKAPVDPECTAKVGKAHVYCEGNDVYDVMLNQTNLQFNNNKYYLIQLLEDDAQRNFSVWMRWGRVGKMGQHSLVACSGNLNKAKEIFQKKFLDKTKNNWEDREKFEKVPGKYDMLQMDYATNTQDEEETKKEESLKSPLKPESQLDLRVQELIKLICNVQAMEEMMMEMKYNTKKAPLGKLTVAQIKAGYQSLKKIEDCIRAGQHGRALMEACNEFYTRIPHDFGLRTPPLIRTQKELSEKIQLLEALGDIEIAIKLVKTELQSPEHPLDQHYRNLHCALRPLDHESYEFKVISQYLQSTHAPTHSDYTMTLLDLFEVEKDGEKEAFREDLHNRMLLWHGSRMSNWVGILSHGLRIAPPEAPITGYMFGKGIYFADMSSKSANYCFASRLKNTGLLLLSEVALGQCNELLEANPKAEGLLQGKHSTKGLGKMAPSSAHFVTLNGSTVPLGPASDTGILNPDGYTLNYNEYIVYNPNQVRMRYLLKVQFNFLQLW
Assay [3] deals with Protein mono-ADP-ribosyltransferase PARP14 (Homo sapiens, UniProt Q460N5). The experiment in a line: Inhibition of human ARTD8 by fluorescence analysis.
Protein mono-ADP-ribosyltransferase PARP14, sequence (Q460N5 whole entry): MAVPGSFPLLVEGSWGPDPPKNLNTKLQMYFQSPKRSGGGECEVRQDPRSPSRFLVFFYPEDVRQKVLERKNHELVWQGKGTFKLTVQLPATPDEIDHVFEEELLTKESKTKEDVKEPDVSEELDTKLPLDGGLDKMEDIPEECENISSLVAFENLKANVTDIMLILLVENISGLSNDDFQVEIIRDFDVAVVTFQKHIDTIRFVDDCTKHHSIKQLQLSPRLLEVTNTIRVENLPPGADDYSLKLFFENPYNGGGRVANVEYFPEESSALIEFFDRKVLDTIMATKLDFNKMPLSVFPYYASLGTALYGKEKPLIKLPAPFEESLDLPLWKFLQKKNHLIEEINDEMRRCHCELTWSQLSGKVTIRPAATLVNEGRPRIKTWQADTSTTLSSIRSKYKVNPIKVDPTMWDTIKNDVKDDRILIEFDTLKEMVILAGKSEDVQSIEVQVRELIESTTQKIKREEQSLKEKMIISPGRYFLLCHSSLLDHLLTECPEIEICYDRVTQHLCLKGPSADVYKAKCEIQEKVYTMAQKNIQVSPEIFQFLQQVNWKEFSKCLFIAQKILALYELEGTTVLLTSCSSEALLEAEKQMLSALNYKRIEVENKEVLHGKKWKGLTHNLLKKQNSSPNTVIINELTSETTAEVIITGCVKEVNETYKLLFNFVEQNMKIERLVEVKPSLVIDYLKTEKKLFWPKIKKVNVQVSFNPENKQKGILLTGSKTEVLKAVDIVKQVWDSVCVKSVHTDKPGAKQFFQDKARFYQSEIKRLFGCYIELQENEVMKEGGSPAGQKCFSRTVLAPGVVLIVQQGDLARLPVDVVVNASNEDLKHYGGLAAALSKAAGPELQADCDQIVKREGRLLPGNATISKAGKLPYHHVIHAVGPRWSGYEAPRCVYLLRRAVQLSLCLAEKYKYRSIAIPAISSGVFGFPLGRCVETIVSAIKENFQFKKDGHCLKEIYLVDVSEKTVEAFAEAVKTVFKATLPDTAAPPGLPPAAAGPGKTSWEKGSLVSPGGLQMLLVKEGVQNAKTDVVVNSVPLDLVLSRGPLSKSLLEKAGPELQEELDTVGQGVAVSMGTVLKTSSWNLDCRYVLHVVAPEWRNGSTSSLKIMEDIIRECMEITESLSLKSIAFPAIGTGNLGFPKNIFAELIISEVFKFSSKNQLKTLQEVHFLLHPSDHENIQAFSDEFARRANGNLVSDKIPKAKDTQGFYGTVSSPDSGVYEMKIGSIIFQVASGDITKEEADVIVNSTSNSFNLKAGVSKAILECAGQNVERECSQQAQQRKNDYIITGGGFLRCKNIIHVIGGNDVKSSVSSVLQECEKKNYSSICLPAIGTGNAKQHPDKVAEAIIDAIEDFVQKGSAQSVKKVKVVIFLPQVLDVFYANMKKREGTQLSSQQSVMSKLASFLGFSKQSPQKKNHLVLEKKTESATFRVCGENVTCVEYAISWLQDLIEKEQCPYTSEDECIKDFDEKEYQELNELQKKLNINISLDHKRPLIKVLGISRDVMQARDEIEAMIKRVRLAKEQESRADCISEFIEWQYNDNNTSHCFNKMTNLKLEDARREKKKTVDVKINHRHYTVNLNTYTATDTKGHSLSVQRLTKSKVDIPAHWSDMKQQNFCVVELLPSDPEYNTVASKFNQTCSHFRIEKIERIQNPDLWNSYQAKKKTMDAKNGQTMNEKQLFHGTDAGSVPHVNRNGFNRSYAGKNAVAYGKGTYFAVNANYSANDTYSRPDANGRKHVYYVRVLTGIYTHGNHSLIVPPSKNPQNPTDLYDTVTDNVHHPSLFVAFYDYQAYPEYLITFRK
The target in assay [4] is Poly [ADP-ribose] polymerase 1 (Homo sapiens, UniProt P09874). Nature of the assay: Inhibition of human ARTD1 by fluorescence analysis.
Poly [ADP-ribose] polymerase 1, sequence (P09874 whole entry): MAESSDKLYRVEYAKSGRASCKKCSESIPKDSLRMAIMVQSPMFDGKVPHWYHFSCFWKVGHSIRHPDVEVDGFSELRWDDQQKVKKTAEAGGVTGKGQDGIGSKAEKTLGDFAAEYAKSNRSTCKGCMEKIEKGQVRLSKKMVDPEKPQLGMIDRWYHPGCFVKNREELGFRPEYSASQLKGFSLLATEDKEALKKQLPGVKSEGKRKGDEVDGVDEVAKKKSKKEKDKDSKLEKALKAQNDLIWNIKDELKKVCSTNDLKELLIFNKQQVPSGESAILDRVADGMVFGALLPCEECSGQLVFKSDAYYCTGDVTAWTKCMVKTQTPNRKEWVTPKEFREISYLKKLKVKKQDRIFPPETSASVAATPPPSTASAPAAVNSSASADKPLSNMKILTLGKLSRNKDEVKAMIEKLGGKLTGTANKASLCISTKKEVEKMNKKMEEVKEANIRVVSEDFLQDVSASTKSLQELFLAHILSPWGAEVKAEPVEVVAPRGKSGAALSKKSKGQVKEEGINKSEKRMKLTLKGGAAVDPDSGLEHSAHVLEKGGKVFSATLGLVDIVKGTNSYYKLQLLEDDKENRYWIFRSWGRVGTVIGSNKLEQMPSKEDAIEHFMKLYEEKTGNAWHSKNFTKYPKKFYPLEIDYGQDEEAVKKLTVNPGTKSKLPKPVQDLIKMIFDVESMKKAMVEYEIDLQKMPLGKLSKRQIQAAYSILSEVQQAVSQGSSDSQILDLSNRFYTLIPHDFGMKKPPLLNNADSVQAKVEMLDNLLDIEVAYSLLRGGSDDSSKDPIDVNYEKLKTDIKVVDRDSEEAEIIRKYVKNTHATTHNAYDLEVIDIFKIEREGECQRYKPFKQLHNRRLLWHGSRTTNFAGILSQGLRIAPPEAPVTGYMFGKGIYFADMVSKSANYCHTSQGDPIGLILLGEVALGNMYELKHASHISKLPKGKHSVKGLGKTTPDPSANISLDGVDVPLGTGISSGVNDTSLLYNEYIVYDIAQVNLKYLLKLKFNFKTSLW
Assay [5] concerns the target T2, Protein mono-ADP-ribosyltransferase PARP10 (Homo sapiens, UniProt Q53GL7).
T2 sequence (Q53GL7 whole entry): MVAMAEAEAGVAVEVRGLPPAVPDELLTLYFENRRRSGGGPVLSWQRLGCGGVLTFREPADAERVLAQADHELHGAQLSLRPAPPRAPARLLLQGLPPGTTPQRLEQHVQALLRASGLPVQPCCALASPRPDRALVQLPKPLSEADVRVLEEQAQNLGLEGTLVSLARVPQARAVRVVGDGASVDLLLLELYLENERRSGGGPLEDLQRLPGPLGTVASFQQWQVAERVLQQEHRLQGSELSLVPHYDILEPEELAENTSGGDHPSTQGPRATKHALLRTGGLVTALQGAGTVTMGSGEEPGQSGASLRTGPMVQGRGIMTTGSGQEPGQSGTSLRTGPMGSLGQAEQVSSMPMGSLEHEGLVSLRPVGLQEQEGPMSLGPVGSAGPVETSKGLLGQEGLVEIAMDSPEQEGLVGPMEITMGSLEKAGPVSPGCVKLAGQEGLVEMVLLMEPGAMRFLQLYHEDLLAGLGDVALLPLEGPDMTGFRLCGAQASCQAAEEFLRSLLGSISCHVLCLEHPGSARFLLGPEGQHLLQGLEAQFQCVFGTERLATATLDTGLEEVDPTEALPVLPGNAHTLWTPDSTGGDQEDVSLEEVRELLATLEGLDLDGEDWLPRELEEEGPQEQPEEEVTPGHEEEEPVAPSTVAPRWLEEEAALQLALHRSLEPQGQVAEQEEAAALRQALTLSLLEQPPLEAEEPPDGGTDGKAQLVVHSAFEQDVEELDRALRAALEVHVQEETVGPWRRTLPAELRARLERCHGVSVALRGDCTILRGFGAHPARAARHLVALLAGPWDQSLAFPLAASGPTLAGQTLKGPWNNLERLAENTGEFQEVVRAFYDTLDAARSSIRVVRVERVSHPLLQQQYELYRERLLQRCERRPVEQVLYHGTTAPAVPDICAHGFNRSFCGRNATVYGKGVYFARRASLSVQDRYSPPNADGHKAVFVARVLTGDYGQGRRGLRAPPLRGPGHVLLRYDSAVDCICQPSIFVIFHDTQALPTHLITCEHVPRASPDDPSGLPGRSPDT
The experiment in a line: Inhibition of human ARTD10 by fluorescence analysis.

The target of assay [6] is Protein mono-ADP-ribosyltransferase PARP4 (Homo sapiens, UniProt Q9UKK3). The experiment in a line: Inhibition of human ARTD4 by fluorescence analysis.
Protein mono-ADP-ribosyltransferase PARP4, sequence (Q9UKK3 whole entry): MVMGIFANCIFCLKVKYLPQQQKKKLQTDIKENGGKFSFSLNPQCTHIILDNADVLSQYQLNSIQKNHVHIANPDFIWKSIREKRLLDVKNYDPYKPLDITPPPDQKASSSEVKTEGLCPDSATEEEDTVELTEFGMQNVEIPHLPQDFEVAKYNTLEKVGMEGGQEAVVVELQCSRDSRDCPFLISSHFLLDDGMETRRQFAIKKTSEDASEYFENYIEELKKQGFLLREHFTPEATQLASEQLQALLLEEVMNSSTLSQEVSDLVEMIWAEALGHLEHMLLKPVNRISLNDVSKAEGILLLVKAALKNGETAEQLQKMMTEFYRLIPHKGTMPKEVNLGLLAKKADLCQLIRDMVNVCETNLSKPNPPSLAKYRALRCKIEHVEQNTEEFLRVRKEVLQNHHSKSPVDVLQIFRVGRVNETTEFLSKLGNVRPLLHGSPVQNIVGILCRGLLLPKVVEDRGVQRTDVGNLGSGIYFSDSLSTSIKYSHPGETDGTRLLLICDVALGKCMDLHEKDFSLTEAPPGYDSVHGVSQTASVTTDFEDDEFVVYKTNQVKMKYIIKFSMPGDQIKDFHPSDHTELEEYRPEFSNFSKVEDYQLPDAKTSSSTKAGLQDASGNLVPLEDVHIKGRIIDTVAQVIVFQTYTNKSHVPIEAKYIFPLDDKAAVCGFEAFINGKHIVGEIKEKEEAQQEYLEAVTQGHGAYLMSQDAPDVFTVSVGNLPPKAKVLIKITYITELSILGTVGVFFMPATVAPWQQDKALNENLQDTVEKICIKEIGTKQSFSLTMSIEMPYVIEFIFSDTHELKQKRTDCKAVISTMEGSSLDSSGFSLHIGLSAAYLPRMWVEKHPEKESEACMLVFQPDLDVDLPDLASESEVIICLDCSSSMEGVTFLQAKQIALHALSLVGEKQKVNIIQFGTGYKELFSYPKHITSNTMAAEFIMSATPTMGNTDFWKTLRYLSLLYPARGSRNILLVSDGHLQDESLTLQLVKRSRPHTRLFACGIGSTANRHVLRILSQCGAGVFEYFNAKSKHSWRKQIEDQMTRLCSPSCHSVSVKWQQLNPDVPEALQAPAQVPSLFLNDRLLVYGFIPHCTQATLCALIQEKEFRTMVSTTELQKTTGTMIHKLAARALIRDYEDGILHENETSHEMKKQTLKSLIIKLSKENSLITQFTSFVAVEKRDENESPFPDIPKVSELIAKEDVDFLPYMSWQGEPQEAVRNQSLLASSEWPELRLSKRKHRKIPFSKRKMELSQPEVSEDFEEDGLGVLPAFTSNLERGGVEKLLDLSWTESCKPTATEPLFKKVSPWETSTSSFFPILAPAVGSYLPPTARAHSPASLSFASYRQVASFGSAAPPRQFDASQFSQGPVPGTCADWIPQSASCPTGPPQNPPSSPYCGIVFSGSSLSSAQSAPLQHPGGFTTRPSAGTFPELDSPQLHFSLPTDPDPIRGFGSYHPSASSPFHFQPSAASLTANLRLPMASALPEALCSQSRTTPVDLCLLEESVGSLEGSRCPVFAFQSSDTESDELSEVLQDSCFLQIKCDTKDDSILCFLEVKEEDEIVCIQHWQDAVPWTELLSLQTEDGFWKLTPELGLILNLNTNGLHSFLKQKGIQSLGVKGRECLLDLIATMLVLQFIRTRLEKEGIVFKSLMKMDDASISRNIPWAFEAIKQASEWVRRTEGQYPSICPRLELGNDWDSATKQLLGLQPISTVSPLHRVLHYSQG
For assay [7], the target named is T3, Protein mono-ADP-ribosyltransferase PARP3 (Homo sapiens, UniProt Q9Y6F1).
T3 sequence (Q9Y6F1 whole entry): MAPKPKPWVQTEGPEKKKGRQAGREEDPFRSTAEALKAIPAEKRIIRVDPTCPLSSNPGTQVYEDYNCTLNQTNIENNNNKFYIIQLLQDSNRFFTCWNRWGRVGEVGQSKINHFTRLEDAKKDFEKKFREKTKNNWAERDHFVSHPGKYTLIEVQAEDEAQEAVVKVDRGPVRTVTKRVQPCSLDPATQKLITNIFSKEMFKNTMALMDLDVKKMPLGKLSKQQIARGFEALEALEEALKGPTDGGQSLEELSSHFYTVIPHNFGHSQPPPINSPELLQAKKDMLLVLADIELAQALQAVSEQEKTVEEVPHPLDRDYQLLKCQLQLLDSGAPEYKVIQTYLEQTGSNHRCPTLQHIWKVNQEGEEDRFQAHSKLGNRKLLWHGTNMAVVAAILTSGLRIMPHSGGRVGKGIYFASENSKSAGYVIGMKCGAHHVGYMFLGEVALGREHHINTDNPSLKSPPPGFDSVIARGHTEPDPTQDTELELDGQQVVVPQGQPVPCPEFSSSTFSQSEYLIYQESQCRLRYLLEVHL
The experiment in a line: Inhibition of human ARTD3 by fluorescence analysis.

Assay [8] addresses T4, Protein mono-ADP-ribosyltransferase PARP15 (Homo sapiens, UniProt Q460N3).
T4 sequence (Q460N3 whole entry): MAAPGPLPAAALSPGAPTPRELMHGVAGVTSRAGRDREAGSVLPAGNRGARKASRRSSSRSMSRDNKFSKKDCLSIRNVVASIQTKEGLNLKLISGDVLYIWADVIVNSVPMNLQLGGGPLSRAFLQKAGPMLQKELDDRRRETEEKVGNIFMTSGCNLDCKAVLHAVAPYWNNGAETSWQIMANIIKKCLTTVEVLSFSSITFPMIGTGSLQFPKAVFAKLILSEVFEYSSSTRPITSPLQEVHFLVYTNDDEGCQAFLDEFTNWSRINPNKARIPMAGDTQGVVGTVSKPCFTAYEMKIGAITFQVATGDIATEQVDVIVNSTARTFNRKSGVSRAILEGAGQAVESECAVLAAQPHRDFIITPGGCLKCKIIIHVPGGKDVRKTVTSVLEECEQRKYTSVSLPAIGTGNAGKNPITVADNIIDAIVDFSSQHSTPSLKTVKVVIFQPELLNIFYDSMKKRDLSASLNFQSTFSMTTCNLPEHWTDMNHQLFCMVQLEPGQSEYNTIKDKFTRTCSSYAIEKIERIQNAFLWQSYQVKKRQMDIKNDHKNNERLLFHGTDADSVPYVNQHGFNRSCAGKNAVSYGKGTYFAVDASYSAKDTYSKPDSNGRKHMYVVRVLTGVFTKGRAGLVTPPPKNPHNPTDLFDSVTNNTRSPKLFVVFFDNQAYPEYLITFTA
The experiment in a line: Inhibition of human ARTD7 by fluorescence analysis.

With `COc1ccc(C(=O)Nc2ccc(C(=O)N(c3ccncn3)c3ccccc3Cl)cc2)cc1`, the IC50 was more than 10 µM in assay [1]; more than 100 µM in assay [2]; more than 10 µM in assay [3]; 77 µM in assay [4]; more than 10 µM in assay [5]; more than 100 µM in assay [6]. Moreover, the results for the IC50 in assay [7] and in assay [8] were more than 100 µM and more than 10 µM, respectively.

As a reminder, the IC50 is the point on the concentration scale where inhibition reaches its midpoint. Lower therefore signals inhibition by little substance.
